{"source": "patent US20100226919A1", "about": "“Antitumoral Treatments” (Pharma Mar, S.A., priority 2007, published 2010)", "key": {"mouse leukemia (P388)": {"tested_on": "mouse leukemia (P388)", "details": "cited from earlier work"}, "colon (HT-29)": {"tested_on": "colon (HT-29)", "details": "cited from earlier work"}, "[1]": {"tested_on": "non-small cell lung (A549)", "details": "cited from earlier work"}, "H322 cells [2]": {"tested_on": "H322 cells", "experiment": "Cell-cycle progression and apoptosis by propidium iodide FACS analysis", "type": "cell-based, human", "details": "H322, 0.5 μM, 0, 3, 6 and 24 hours", "protocol": "H322 cells were plated in a 6-well plate and incubated with RPMI1640 medium with 10% fetal bovine serum at 37° C. overnight. […] At the indicated time point, cells were harvested by trypsinization and fixed with cold 75% ethanol at 4° C. overnight. Cells were incubated with 1 μg/ml of propidium iodide and 5 μg/ml of RNase I at room temperature for 3 hours. The cell-cycle distribution and apoptotic cells (Sub-G0/G1) were measured by FACS analysis (BD Biosciences, San Joes, Calif.)."}, "A549 cells": {"tested_on": "A549 cells", "details": "read-out: IC50 (50% cell growth inhibition); A549, 72 h exposure; range given for four highly sensitive cell lines", "excerpt": "(§1) Nine human NSCLC cell lines that were characterized for EGFR, Ras, and p53 gene expression and sensitivity to a variety of antitumor agents (paclitaxel, premetrexed, erlotinib, etc.) were used as models to examine the cell sensitivity to PM02734 trifluoroacetate salt. These NSCLC cell lines are the following: H322, A549, H661, H1299, H1975 with L858R and T790M EGFR double mutation, H358, H460, H1650 with L858R EGFR mutation, and H3255 with […]. […] H3255 cell line is a gift from Dr. Pasi A. Jänne (Dana-Farber Cancer Institute, Boston Mass.).\n(§2) Exponentially growing cells (1×10^5/ml) were plated in 96-well plates and allowed to attach overnight. Cells were exposed to various concentrations of PM02734 trifluoroacetate salt at 37° C. for 72 hours.\n(§3) H322, A549, H1299 and H460 cells were plated in 96-well plates as described above. […] Enzyme Regul. […] The synergistic effects (CI index) were analyzed by software CalcuSyn."}, "H322 cells [3]": {"tested_on": "H322 cells", "details": "read-out: IC50 (50% cell growth inhibition); H322, 72 h exposure; range given for four highly sensitive cell lines", "excerpt": "as §1, §2, §3"}, "H460 cells": {"tested_on": "H460 cells", "details": "read-out: IC50 (50% cell growth inhibition); H460, 72 h exposure; resistant cell lines", "excerpt": "as §1, §2, §3"}, "H1299 cells": {"tested_on": "H1299 cells", "details": "read-out: IC50 (50% cell growth inhibition); H1299, 72 h exposure; range given for two cell lines of intermediate sensitivity", "excerpt": "as §1, §2, §3"}, "H358 cells": {"tested_on": "H358 cells", "details": "read-out: IC50 (50% cell growth inhibition); H358, 72 h exposure; resistant cell lines", "excerpt": "as §1, §2"}, "H661 cells": {"tested_on": "H661 cells", "details": "read-out: IC50 (50% cell growth inhibition); H661, 72 h exposure; range given for four highly sensitive cell lines", "excerpt": "as §1, §2"}, "H1975 cells": {"tested_on": "H1975 cells", "details": "read-out: IC50 (50% cell growth inhibition); H1975 (double EGFR mutant), 72 h exposure; range given for two cell lines of intermediate sensitivity", "excerpt": "as §1, §2"}, "H3255 cells [4]": {"tested_on": "H3255 cells", "details": "read-out: IC50 (50% cell growth inhibition); H3255 (EGFR mutant), 72 h exposure; range given for four highly sensitive cell lines", "excerpt": "as §1, §2"}, "H1650 cells": {"tested_on": "H1650 cells", "details": "read-out: IC50 (50% cell growth inhibition); H1650 (EGFR mutant), 72 h exposure; resistant cell lines", "excerpt": "as §1, §2"}, "[5]": {"tested_on": "human A549 NSCLC cell line", "experiment": "A549 subcutaneous xenograft model in nude mice", "type": "in vivo", "details": "PM02734 0.1 mg/kg i.v. 3 times per week for 2 weeks; erlotinib 50 mg/kg p.o. 5 times per week for 2 weeks; p<0.001", "protocol": "PM02734 was administered in its trifluoroacetate salt using water for injection as vehicle. Erlotinib was administered using sterile water as vehicle.\nNude mice (NUR-NU-F-M, female, 5-6 weeks old, Taconic Farm, Germantown N.Y.) were subcutaneously implanted with the human A549 NSCLC cell line (4.5×10^6 cells/mouse). Seven days later, mice were randomly divided into 4 groups with 5 mice per group. One group of mice received the combination treatment (PM02734: 0.1 mg/kg×3 times per week (on days 1, 3, and 5) for 2 weeks, i.v.; erlotinib: 50 mg/kg×5 times per week (on days 1, 2, 3, 4, and 5) for 2 weeks, p.o.). In this group erlotinib was given first followed two hours later by the administration of PM02734. The other groups were treated with PM02734 alone (0.1 mg/kg×3 times per week (on days 1, 3, and 5) for 2 weeks, i.v.), erlotinib alone (50 mg/kg×5 times per week (on days 1, 2, 3, 4, and 5) for 2 weeks, p.o.) or without treatment. Tumor size was measured twice a week. Tumor volume was calculated using the following equation: Tumor volume (mm^3)=0.5×longer diameter×(shorter diameter)^2 in millimeter. The experiment was terminated when ≧50% mice had tumors larger than 15 mm (i.e., the longer diameter>15 mm)."}, "H322 cells [6]": {"tested_on": "H322 cells", "details": "only two of the nine cell lines sensitive; cited from earlier work"}, "H3255 cells [7]": {"tested_on": "H3255 cells", "details": "only two of the nine cell lines sensitive; cited from earlier work"}, "H322 cells [8]": {"tested_on": "H322 cells", "details": "from Ling et al., Mol Pharmacol 2007; cited from earlier work"}}, "note": "Where two headings read alike, the source gives them in different places."}
{"compound": "Kahalalide F", "values": [{"measurement": "in vitro antitumor activity", "setting": "mouse leukemia (P388)", "result": "micromolar activity"}, {"measurement": "in vitro antitumor activity", "setting": "colon (HT-29)", "result": "micromolar activity"}, {"measurement": "in vitro antitumor activity", "setting": "[1]", "result": "micromolar activity"}]}
{"compound": "C/C=C1\\NC(=O)[C@H](Cc2ccccc2)NC(=O)[C@@H](C(C)C)NC(=O)[C@@H]([C@@H](C)CC)NC(=O)[C@H](NC(=O)[C@H](NC(=O)[C@H](CCCN)NC(=O)[C@H]2CCCN2C(=O)[C@H](NC(=O)[C@@H](NC(=O)[C@@H](NC(=O)[C@H](NC(=O)CC[C@@H](C)CC)C(C)C)[C@@H](C)O)C(C)C)C(C)C)[C@@H](C)CC)[C@@H](C)OC(=O)[C@H](C(C)C)NC1=O", "note": "[PM02734, (4S)-MeHex-D-Val-L-Thr-L-Val-D-Val-D-Pro-L-Orn-D-allo-Ile-cyclo(D-allo-Thr-D-allo-Ile-D-Val-L-Phe-Z-Dhb-L-Val)]", "values": [{"measurement": "apoptotic cells (Sub-G0/G1)", "setting": "H322 cells [2]", "result": "apoptotic cell death in a time-dependent manner"}, {"measurement": "effect on cell-cycle progression", "setting": "H322 cells [2]", "result": "cell cycle arrest at S-phase"}, {"measurement": "IC50", "setting": "A549 cells", "result": "300 to 1250", "unit": "nM"}, {"measurement": "IC50", "setting": "H322 cells [3]", "result": "300 to 1250", "unit": "nM"}, {"measurement": "IC50", "setting": "H460 cells", "result": "> 5000", "unit": "nM"}, {"measurement": "IC50", "setting": "H1299 cells", "result": "2000 to 2800", "unit": "nM"}, {"measurement": "IC50", "setting": "H358 cells", "result": "> 5000", "unit": "nM"}, {"measurement": "IC50", "setting": "H661 cells", "result": "300 to 1250", "unit": "nM"}, {"measurement": "IC50", "setting": "H1975 cells", "result": "2000 to 2800", "unit": "nM"}, {"measurement": "IC50", "setting": "H3255 cells [4]", "result": "300 to 1250", "unit": "nM"}, {"measurement": "IC50", "setting": "H1650 cells", "result": "> 5000", "unit": "nM"}, {"measurement": "% treated vs. control tumor volume ratio (% T/C)", "setting": "[5]", "result": 74, "unit": "%"}]}
{"compound": "C#Cc1cccc(Nc2ncnc3cc(OCCOC)c(OCCOC)cc23)c1", "note": "[erlotinib, Erlotinib]", "values": [{"measurement": "cell sensitivity to erlotinib", "setting": "H322 cells [6]", "result": "sensitive"}, {"measurement": "cell sensitivity to erlotinib", "setting": "H3255 cells [7]", "result": "sensitive"}, {"measurement": "effect on cell-cycle progression", "setting": "H322 cells [8]", "result": "G1/S phase arrest"}]}
